Reference: patent US9079901B2, “Fused heterocyclic compounds as ion channel modulators” (Gilead Sciences, Inc., priority 2010, dated 2015)

Molecular target: wild-type human cardiac sodium channel, hNav1.5 (late sodium current) in HEK293 cells (Homo sapiens, UniProt Q14524)
Experiment: Late INa screening assay (automated whole-cell patch clamp, PatchXpress)
Format: cell-based
Conditions: late INa generated with 10 μM Tefluthrin (or 50 nM ATX II), HEK293 hNav1.5; for inhibition at 1 µM: HEK293, compound at 1 μM, read-out: Late INa 1 μM (percent block of late INa)
Procedure, shortened: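 Percent block was derived from mean current 225–250 ms into a 250 ms depolarisation to −20 mV (holding −120 mV, every 10 s), normalised to the current left in Na-free solution. Whole-cell recordings came from HEK293 cells stably expressing α-subunit-only hNav1.5, at 24–27 °C. Late current was enhanced with 10 μM tefluthrin or 50 nM ATX II, then compound (typically 10 μM) was added three times over 7–8 min.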

Chain of wild-type human cardiac sodium channel, hNav1.5 (late sodium current) in HEK293 cells (Q14524 whole entry): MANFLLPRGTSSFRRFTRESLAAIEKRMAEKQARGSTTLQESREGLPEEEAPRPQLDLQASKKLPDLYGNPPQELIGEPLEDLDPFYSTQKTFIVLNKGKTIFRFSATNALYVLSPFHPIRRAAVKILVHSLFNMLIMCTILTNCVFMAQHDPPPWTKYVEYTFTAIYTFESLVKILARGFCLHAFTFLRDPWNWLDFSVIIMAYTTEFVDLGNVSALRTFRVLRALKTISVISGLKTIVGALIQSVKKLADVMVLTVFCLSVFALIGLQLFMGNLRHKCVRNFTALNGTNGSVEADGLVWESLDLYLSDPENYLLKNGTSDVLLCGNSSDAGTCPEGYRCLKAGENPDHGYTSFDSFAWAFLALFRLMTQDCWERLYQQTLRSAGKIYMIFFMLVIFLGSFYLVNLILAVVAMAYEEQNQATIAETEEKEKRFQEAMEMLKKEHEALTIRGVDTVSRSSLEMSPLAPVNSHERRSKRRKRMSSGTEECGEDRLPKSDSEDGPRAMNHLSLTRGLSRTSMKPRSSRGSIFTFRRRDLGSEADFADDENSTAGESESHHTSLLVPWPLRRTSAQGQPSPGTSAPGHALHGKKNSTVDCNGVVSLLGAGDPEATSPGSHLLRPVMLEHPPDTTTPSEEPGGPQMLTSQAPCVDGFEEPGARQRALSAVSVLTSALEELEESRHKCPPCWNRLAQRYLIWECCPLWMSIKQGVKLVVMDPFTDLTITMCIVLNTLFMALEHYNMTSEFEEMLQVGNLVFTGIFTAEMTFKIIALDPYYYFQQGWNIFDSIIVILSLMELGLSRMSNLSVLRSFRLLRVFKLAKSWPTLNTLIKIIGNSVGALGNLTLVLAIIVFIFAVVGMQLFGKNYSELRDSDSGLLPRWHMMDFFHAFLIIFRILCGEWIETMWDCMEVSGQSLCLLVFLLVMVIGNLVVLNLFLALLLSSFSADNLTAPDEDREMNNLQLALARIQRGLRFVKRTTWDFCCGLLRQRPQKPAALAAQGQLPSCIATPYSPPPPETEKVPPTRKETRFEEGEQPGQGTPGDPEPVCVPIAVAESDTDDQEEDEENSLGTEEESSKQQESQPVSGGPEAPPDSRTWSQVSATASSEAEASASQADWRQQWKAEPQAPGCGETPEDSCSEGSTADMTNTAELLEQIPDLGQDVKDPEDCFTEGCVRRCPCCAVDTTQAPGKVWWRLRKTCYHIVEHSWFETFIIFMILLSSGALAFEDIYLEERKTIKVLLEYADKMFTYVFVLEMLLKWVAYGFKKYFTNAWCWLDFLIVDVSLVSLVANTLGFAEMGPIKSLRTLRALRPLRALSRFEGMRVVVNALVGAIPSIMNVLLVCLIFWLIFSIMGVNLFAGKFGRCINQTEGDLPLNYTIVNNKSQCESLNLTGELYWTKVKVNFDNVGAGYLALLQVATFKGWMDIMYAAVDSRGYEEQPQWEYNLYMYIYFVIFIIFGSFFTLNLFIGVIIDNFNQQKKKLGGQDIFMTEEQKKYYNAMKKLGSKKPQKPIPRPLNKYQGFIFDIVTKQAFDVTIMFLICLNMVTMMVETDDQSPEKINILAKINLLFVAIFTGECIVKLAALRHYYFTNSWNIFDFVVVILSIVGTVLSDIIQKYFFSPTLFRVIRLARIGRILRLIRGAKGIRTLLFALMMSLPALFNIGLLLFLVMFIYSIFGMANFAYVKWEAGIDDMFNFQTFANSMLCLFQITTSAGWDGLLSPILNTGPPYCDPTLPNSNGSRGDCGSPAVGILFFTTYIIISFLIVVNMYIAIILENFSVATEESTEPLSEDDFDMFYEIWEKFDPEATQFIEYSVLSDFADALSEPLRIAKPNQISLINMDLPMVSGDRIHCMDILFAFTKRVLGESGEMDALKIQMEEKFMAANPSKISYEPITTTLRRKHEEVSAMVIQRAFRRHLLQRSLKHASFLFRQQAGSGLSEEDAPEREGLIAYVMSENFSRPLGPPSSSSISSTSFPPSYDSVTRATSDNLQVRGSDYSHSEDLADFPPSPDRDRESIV

SMILES | inhibition at 1 µM [%] | Late INa 1 μM (percent block of late INa) (compound at 1 μM) [%]
O=c1n(CCc2ncccn2)nc2ccc(-c3ccc(OC(F)(F)F)cc3)cn12 [compound 111, 2-(2-(pyrimidin-2-yl)ethyl)-6-(4-(trifluoromethoxy)phenyl)-[1,2,4]triazolo[4,3-a]pyridin-3(2H)-one] | 18.6 | –
O=c1n(Cc2ncco2)nc2ccc(-c3ccc(OC(F)(F)F)cc3)cn12 [compound 19, 2-(oxazol-2-ylmethyl)-6-(4-(trifluoromethoxy)phenyl)-[1,2,4]triazolo[4,3-a]pyridin-3(2H)-one] | 18.1 | –
N#Cc1ccnc(OCCn2nc3ccc(-c4ccc(OC(F)(F)F)cc4)cn3c2=O)n1 [compound 129] | – | 16.1133
O=c1n(CCOc2ncccn2)nc2ccc(-c3ccc(Oc4ccc(Cl)cc4)cc3)cn12 [compound 120, 6-(4-(4-chlorophenoxy)phenyl)-2-(2-(pyrimidin-2-yloxy)ethyl)-[1,2,4]triazolo[4,3-a]pyridin-3(2H)-one] | 73.9 | –
O=c1n(Cc2noc(-c3cccc(C(F)(F)F)c3)n2)nc2ccc(-c3ccc(OC(F)(F)F)cc3)cn12 [compound 7, 6-(4-(trifluoromethoxy)phenyl)-2-((5-(3-(trifluoromethyl)phenyl)-1,2,4-oxadiazol-3-yl)methyl)-[1,2,4]triazolo[4,3-a]pyridin-3(2H)-one] | 24.5 | –
CO[C@@H](COc1ccccc1Cl)Cn1nc2ccc(-c3ccc(OC(F)(F)F)cc3)cn2c1=O [compound 96, (R)-2-(3-(2-chlorophenoxy)-2-methoxypropyl)-6-(4-(trifluoromethoxy)phenyl)-[1,2,4]triazolo[4,3-a]pyridin-3(2H)-one] | 46.1 | –
CCOc1ccnc(OC2COCC2n2nc3ccc(-c4ccc(OC(F)(F)F)cc4)cn3c2=O)n1 (stereo not drawn) [compound 125, 2-(4-(4-ethoxypyrimidin-2-yloxy)tetrahydrofuran-3-yl)-6-(4-(trifluoromethoxy)phenyl)-[1,2,4]triazolo[4,3-a]pyridin-3(2H)-one] | 14.1 | –
O=c1n(CC(O)COc2ccccc2-c2ccccc2)nc2ccc(-c3ccc(OC(F)(F)F)cc3)cn12 (stereo not drawn) [compound 100, 2-(3-(biphenyl-2-yloxy)-2-hydroxypropyl)-6-(4-(trifluoromethoxy)phenyl)-[1,2,4]triazolo[4,3-a]pyridin-3(2H)-one] | 18 | –
COc1ccccc1OCCCn1nc2ccc(-c3ccc(OC(F)(F)F)cc3)cn2c1=O [compound 37, 2-(3-(2-methoxyphenoxy)propyl)-6-(4-(trifluoromethoxy)phenyl)-[1,2,4]triazolo[4,3-a]pyridin-3(2H)-one] | 34.5 | –
O=c1n(CCc2ncccc2Br)nc2ccc(-c3ccc(OC(F)(F)F)cc3)cn12 [compound 56, 2-(2-(3-bromopyridin-2-yl)ethyl)-6-(4-(trifluoromethoxy)phenyl)-[1,2,4]triazolo[4,3-a]pyridin-3(2H)-one] | 39.8 | –
Cc1noc(Cn2nc3ccc(-c4ccc(OCC(F)(F)F)cc4)cn3c2=O)n1 [compound 83, 2-((3-methyl-1,2,4-oxadiazol-5-yl)methyl)-6-(4-(2,2,2-trifluoroethoxy)phenyl)-[1,2,4]triazolo[4,3-a]pyridin-3(2H)-one] | 10.7 | –
O=c1n(CCCOc2ccccc2F)nc2ccc(-c3ccc(OC(F)(F)F)cc3)cn12 [compound 51, 2-(3-(2-fluorophenoxy)propyl)-6-(4-(trifluoromethoxy)phenyl)-[1,2,4]triazolo[4,3-a]pyridin-3(2H)-one] | 25.6 | –
O=c1n(CCc2ccncn2)nc2ccc(-c3ccc(OC(F)(F)F)cc3)cn12 [compound 113, 2-(2-(pyrimidin-4-yl)ethyl)-6-(4-(trifluoromethoxy)phenyl)-[1,2,4]triazolo[4,3-a]pyridin-3(2H)-one] | 17.8 | –
Cc1cnc(Cn2nc3ccc(-c4ccc(C(F)(F)F)cc4)cn3c2=O)o1 [compound 172, 2-((5-methyloxazol-2-yl)methyl)-6-(4-(trifluoromethyl)phenyl)-[1,2,4]triazolo[4,3-a]pyridin-3(2H)-one] | 24.8 | –
Cc1noc(Cn2nc3ccc(-c4cc(F)c(Oc5ccccc5)c(F)c4)cn3c2=O)n1 [compound 127, 6-(3,5-difluoro-4-phenoxyphenyl)-2-((3-methyl-1,2,4-oxadiazol-5-yl)methyl)-[1,2,4]triazolo[4,3-a]pyridin-3(2H)-one] | 21.5 | –
COCc1nc(Cn2nc3ccc(-c4ccc(OC(F)(F)F)cc4)cn3c2=O)no1 [compound 128, 2-((5-(methoxymethyl)-1,2,4-oxadiazol-3-yl)methyl)-6-(4-(trifluoromethoxy)phenyl)-[1,2,4]triazolo[4,3-a]pyridin-3(2H)-one] | 22 | –
O=c1n(CC(F)(F)F)nc2ccc(-c3ccc(OC(F)(F)F)cc3)cn12 [compound 189, 2-(2,2,2-trifluoroethyl)-6-(4-(trifluoromethoxy)phenyl)-[1,2,4]triazolo[4,3-a]pyridin-3(2H)-one] | 15.3 | –

SMILES | inhibition at 1 µM [%] | Late INa 1 μM (percent block of late INa) (compound at 1 μM) [%]
O=c1n(CCCOc2cnccn2)nc2ccc(-c3ccc(OC(F)(F)F)cc3)cn12 [compound 85, 2-(3-(pyrazin-2-yloxy)propyl)-6-(4-(trifluoromethoxy)phenyl)-[1,2,4]triazolo[4,3-a]pyridin-3(2H)-one] | 12.2 | –
O=c1n(Cc2cccc(C(F)(F)F)n2)nc2ccc(-c3ccc(OC(F)(F)F)cc3)cn12 [compound 62, 6-(4-(trifluoromethoxy)phenyl)-2-((6-(trifluoromethyl)pyridin-2-yl)methyl)-[1,2,4]triazolo[4,3-a]pyridin-3(2H)-one] | 21.6 | –
Cc1noc(C)c1Cn1nc2ccc(-c3ccc(OC(F)(F)F)cc3)cn2c1=O [compound 6, 2-((3,5-dimethylisoxazol-4-yl)methyl)-6-(4-(trifluoromethoxy)phenyl)-[1,2,4]triazolo[4,3-a]pyridin-3(2H)-one] | 15.2 | –
N#Cc1ccccc1OCC(O)Cn1nc2ccc(-c3ccc(OC(F)(F)F)cc3)cn2c1=O (stereo not drawn) [compound 101, 2-(2-hydroxy-3-(3-oxo-6-(4-(trifluoromethoxy)phenyl)-[1,2,4]triazolo[4,3-a]pyridin-2(3H)-yl)propoxy)benzonitrile] | 11.7 | –
Cc1cccc(C)c1OCCn1nc2ccc(-c3ccc(OC(F)(F)F)cc3)cn2c1=O [compound 44, 2-(2-(2,6-dimethylphenoxy)ethyl)-6-(4-(trifluoromethoxy)phenyl)-[1,2,4]triazolo[4,3-a]pyridin-3(2H)-one] | 43.1 | –
Cc1nc(Cn2nc3ccc(-c4ccc(OC(F)(F)F)cc4)cn3c2=O)oc1C [compound 22, 2-((4,5-dimethyloxazol-2-yl)methyl)-6-(4-(trifluoromethoxy)phenyl)-[1,2,4]triazolo[4,3-a]pyridin-3(2H)-one] | 29.4 | –
Cc1nc(Cn2nc3ccc(-c4ccc(Oc5ccc(Cl)cc5)cc4)cn3c2=O)no1 [compound 32, 6-(4-(4-chlorophenoxy)phenyl)-2-((5-methyl-1,2,4-oxadiazol-3-yl)methyl)-[1,2,4]triazolo[4,3-a]pyridin-3(2H)-one] | 68.5 | –
COc1c(-c2ccc(OC(F)(F)F)cc2)ccc2nn(Cc3nc(C)no3)c(=O)n12 [compound 30, 5-methoxy-2-((3-methyl-1,2,4-oxadiazol-5-yl)methyl)-6-(4-(trifluoromethoxy)phenyl)-[1,2,4]triazolo[4,3-a]pyridin-3(2H)-one] | 18.2 | –
O=c1n(CCCOc2ccccc2Cl)nc2ccc(-c3ccc(OC(F)(F)F)cc3)cn12 [compound 52, 2-(3-(2-chlorophenoxy)propyl)-6-(4-(trifluoromethoxy)phenyl)-[1,2,4]triazolo[4,3-a]pyridin-3(2H)-one] | 33.3 | –
Cn1cc(Cn2nc3ccc(-c4ccc(OC(F)(F)F)cc4)cn3c2=O)cn1 [compound 163, 2-((1-methyl-1H-pyrazol-4-yl)methyl)-6-(4-(trifluoromethoxy)phenyl)-[1,2,4]triazolo[4,3-a]pyridin-3(2H)-one] | 12 | –
O=c1n(Cc2nnc(C3CC3)s2)nc2ccc(-c3ccc(OC(F)(F)F)cc3)cn12 [compound 170, 2-((5-cyclopropyl-1,3,4-thiadiazol-2-yl)methyl)-6-(4-(trifluoromethoxy)phenyl)-[1,2,4]triazolo[4,3-a]pyridin-3(2H)-one] | 18 | –
O=c1n(Cc2nc(C3CC3)co2)nc2ccc(-c3ccc(C(F)(F)F)cc3)cn12 [compound 194, 2-((4-cyclopropyloxazol-2-yl)methyl)-6-(4-(trifluoromethyl)phenyl)-[1,2,4]triazolo[4,3-a]pyridin-3(2H)-one] | 21.6 | –
O=c1n(CCN2CC[C@@H](Oc3ccc(F)cc3)C2)nc2ccc(-c3ccc(OC(F)(F)F)cc3)cn12 [compound 186, (R)-2-(2-(3-(4-fluorophenoxy)pyrrolidin-1-yl)ethyl)-6-(4-(trifluoromethoxy)phenyl)-[1,2,4]triazolo[4,3-a]pyridin-3(2H)-one] | 37.3 | –
O=c1n(CCc2c(F)cccc2F)nc2ccc(-c3ccc(OC(F)(F)F)cc3)cn12 [compound 63, 2-(2,6-difluorophenethyl)-6-(4-(trifluoromethoxy)phenyl)-[1,2,4]triazolo[4,3-a]pyridin-3(2H)-one] | 46.9 | –
Cc1cccnc1CCn1nc2ccc(-c3ccc(OC(F)(F)F)cc3)cn2c1=O [compound 61, 2-(2-(3-methylpyridin-2-yl)ethyl)-6-(4-(trifluoromethoxy)phenyl)-[1,2,4]triazolo[4,3-a]pyridin-3(2H)-one] | 41.5 | –
CCc1noc(C(C)n2nc3ccc(-c4ccc(OC(F)(F)F)cc4)cn3c2=O)n1 (stereo not drawn) [compound 14, 2-(1-(3-ethyl-1,2,4-oxadiazol-5-yl)ethyl)-6-(4-(trifluoromethoxy)phenyl)-[1,2,4]triazolo[4,3-a]pyridin-3(2H)-one] | 12 | –
